In publication PMC9973354 (mBio, 2022):
Like-named read-outs stand apart in the source and are kept apart here. Starred links: 1 amine or outer side, 2 acyl side, 3 side chain; linkers in the order of their positions; H or OH if unused. Positions of bridges follow the written chain, without caps; N, C: chain ends. Non-standard residues stand in square brackets, D forms with d. Residues, ends and D or L forms follow the SMILES beside them. ξ: configuration not given here. X1 = O=C([C@@H]1CCN=C2C(N[*:1])=Cc3cc(O)c(O)cc3N21)[*:2]; ξOrn(N(OH)CHO) = NC(CCCN(O)C=O)C(=O)O; Suc = O=C(CCC(=O)[*:2])[*:1]; ξK = NCCCCC(N)C(=O)O; ξS = NC(CO)C(=O)O

Experiments:
PA14 ΔfpvA mutant = assay: Growth curves with DSX and siderophores, ΔfpvA; assay type: cell-based, Pseudomonas aeruginosa; settings: 20 h; for growth with siderophore in the presence of DSX: 64 μg/mL DSX + 10 μg/mL siderophore
Method: (§1) Supplementary file : FIG S1 (A) FpvB is expressed in WT PA14 and the ΔfpvA mutant grown in 10:90. PilF was used as a loading control for outer membrane proteins. (B) FpvA is expressed from WT PA14 grown in 10:90. […] PilF was used as a loading control for outer membrane proteins. (C) Growth curves of PA14 and mutants with DSX and different siderophores in 10:90. PA14, ΔfpvA, ΔfpvB, ΔfpvA ΔfpvB, and ΔpvdA ΔpchA strain growth. Blue indicates control, purple indicates treatment with 64 μg/mL DSX, yellow indicates treatment with 10 μg/mL pyoverdine (PA14), and red indicates treatment with 64 μg/mL DSX and 10 μg/mL pyoverdine (PA14). (D) ΔfpvA, ΔfpvA ΔfpvB, and ΔpvdA ΔpchA strain growth. Blue indicates control, purple indicates treatment with 64 μg/mL DSX, grey indicates treatment with 10 μg/mL ferrichrome, and red indicates treatment with 64 μg/mL DSX and 10 μg/mL ferrichrome. (E) ΔfpvA, ΔfpvA ΔfpvB, and ΔpvdA ΔpchA strain growth. […] Download FIG S1, EPS file, 8.5 MB.
(§2) Another explanation for the susceptibility of the ΔfpvA mutant to DSX is that the mutant produces less pyoverdine compared to WT cells due to loss of the signaling cascade that controls siderophore production in response to its binding to FpvA ([25]). To differentiate whether the fpvA mutant was susceptible to DSX because of reduced pyoverdine production or because FpvB was a poor pyoverdine transporter, we treated the WT, ΔfpvA, ΔfpvB, and ΔfpvA ΔfpvB strains with DSX (64 μg/mL) without and with exogenous pyoverdine (10 μg/mL) for 20 h (Fig. 1; see also Fig. S1C). Growth of the ΔfpvA mutant should be restored if there are functional pyoverdine transporters. […] The growth of the ΔfpvA ΔfpvB mutant was inhibited by DSX and pyoverdine, confirming previously published results ([18]).
(§3) As a control, a ΔpvdA ΔpchA mutant unable to make pyoverdine and pyochelin was also tested. Growth of this mutant was inhibited by DSX.

PA14 ΔpvdA ΔpchA mutant = assay: Growth curves with DSX and siderophores, ΔpvdA ΔpchA; assay type: cell-based, Pseudomonas aeruginosa; settings: 64 μg/mL DSX + 10 μg/mL siderophore, 20 h
Method: as §1, §3

FpvB R648C = biological target: T1, FpvB R648C (Pseudomonas aeruginosa, UniProt A0A0H2ZFZ5, R648C); assay: Fluorescence recovery assay (siderophore uptake by FpvB); assay type: cell-based
T1 sequence (A0A0H2ZFZ5 23-802 R648C): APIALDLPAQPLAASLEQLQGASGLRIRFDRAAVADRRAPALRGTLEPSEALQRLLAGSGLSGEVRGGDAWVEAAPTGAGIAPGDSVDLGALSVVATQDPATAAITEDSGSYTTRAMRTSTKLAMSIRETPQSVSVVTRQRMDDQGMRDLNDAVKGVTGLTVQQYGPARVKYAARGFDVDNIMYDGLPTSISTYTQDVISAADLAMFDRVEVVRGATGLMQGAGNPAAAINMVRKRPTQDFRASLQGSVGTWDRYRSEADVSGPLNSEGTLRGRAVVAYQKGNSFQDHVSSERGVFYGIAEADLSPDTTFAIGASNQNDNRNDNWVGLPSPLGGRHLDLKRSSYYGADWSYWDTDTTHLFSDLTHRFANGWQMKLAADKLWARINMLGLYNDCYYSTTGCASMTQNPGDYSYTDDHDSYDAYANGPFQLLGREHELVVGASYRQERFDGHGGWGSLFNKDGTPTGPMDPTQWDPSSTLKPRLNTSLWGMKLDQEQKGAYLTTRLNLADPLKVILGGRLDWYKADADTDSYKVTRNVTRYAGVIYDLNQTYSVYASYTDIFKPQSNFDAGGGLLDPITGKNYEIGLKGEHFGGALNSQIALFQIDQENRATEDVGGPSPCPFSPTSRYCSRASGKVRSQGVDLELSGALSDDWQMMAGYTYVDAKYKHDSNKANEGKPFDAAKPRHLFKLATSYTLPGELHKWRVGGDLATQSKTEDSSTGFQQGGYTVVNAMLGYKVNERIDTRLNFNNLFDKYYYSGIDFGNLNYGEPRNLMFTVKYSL
Method: Cells were equilibrated for 5 min prior to introduction of the siderophores. Fluorescence was recorded every min for 1 h. Carbonyl cyanide m-chlorophenylhydrazone (CCCP) was used as a control to inhibit fluorescence recovery through dissipation of the proton motive force (PMF) ([2], [3]), which is required for uptake.
Cells were cultured overnight in LB with carbenicillin (200 μg/mL) at 37°C with shaking at 200 rpm. Cells were subcultured (1:200 dilution) in 10:90 plus 2% arabinose for 4 h without carbenicillin at 37°C with shaking at 200 rpm. Cells were harvested by centrifugation for 5 min and 6,000 × g and resuspended in sterile 1× phosphate-buffered saline (PBS) (pH 7.4); 1× PBS was made from a 10× stock (80 g NaCl, 2 g KCl, 26.8 g Na2 HPO4-7H2O, 2.4 g KH2PO4 in 1 L of deionized H2O) with 10 μM Alexa Fluor 594 C5 maleimide for microscopy or fluorescein-5-maleimide for fluorescence quenching and recovery assays and incubated in the dark at […] for 30 min on a shaking incubator at 37°C (200 rpm). Excess dye was quenched with 1 mM dithiothreitol (DTT) (Sigma) to stop the reaction. Cells were washed 3× with PBS. For fluorescence recovery assays, cells were incubated with 1× PBS plus 0.4% glucose at 37°C with shaking at 200 rpm. […] Cells were spun down and washed 3× with 1× PBS and resuspended in 1× PBS for quenching assays and 1× PBS plus 0.4% glucose for fluorescence recovery assays.
For fluorescence quenching and recovery assays, cells were diluted to an OD600 of 0.1 for both types of assays, and 148 μL was added into wells of a 96-well black plate (Corning). Fluorescence was recorded for 5 min at 1-min intervals at 37°C (BioTek Neo; excitation, 494 nm; emission, 520 nm). […] Fluorescence was recorded immediately for quenching assays and for 1 h at 1-min intervals for fluorescence recovery assays. Background fluorescence was subtracted from all fluorescence readings and 1-F/F0 was used to calculate the degree of quenching, where F0 is the initial fluorescence. Kd was calculated using GraphPad Prism using a one-site specific binding model or a two-site model. […]

FpvB W347V R648C = biological target: T2, FpvB W347V R648C (Pseudomonas aeruginosa, UniProt A0A0H2ZFZ5, R648C/W347V); assay: Whole-cell fluorescence quenching, FpvB W347V R648C; assay type: binding; settings: FpvB W347V R648C
T2 sequence (A0A0H2ZFZ5 23-802 W347V/R648C): T1 sequence (A0A0H2ZFZ5 23-802 R648C)
Method: Quenching assays with the two xenosiderophores were repeated for the quadruple TBDT mutant expressing WT FpvB, FpvB R191A R648C, or W347V R648C.
Cells were cultured overnight in LB with carbenicillin (200 μg/mL) at 37°C with shaking at 200 rpm. Cells were subcultured (1:200 dilution) in 10:90 plus 2% arabinose for 4 h without carbenicillin at 37°C with shaking at 200 rpm. Cells were harvested by centrifugation for 5 min and 6,000 × g and resuspended in sterile 1× phosphate-buffered saline (PBS) (pH 7.4); 1× PBS was made from a 10× stock (80 g NaCl, 2 g KCl, 26.8 g Na2 HPO4-7H2O, 2.4 g KH2PO4 in 1 L of deionized H2O) with 10 μM Alexa Fluor 594 C5 maleimide for microscopy or fluorescein-5-maleimide for fluorescence quenching and recovery assays and incubated in the dark at room temperature for 30 min on a shaking incubator at 37°C (200 rpm). Excess dye was quenched with 1 mM dithiothreitol (DTT) (Sigma) to stop the reaction. Cells were washed 3× with PBS. For fluorescence recovery assays, cells were incubated with 1× PBS plus 0.4% glucose at 37°C with shaking at 200 rpm. Glucose was prepared as a 20% stock (wt/vol) in 1× PBS and filter sterilized. Cells were spun down and washed 3× with 1× PBS and resuspended in 1× PBS for quenching assays and 1× PBS plus 0.4% glucose for fluorescence recovery assays.
For fluorescence quenching and recovery assays, cells were diluted to an OD600 of 0.1 for both types of assays, and 148 μL was added into wells of a 96-well black plate (Corning). Fluorescence was recorded for 5 min at 1-min intervals at 37°C (BioTek Neo; excitation, 494 nm; emission, 520 nm). After 5 min, 2 μL of each serial dilution for ferrioxamine-Fe^3+, ferrichrome-Fe^3+, and pyoverdine-Fe^3+ or DMSO for vehicle controls was added to each well. Fluorescence was recorded immediately for quenching assays and for 1 h at 1-min intervals for fluorescence recovery assays. Background fluorescence was subtracted from all fluorescence readings and 1-F/F0 was used to calculate the degree of quenching, where F0 is the initial fluorescence. Kd was calculated using GraphPad Prism using a one-site specific binding model or a two-site model. For fluorescence recovery assays, background was subtracted from all fluorescence readings and F/F0 expressed as a percent of control was plotted versus time.

PA14 ΔfpvA ΔfpvB mutant = assay: Growth curves with DSX and siderophores, ΔfpvA ΔfpvB; assay type: cell-based, Pseudomonas aeruginosa; settings: 20 h
Method: as §1, §2, §3

| SMILES | growth with siderophore in the presence of DSX (PA14 ΔfpvA mutant) | growth with siderophore in the presence of DSX (PA14 ΔpvdA ΔpchA mutant) | fluorescence recovery (FpvB R648C) | Kd (FpvB W347V R648C; one-site model, read-out: Kd (converted)) [µM] | growth with siderophore in the presence of DSX (PA14 ΔfpvA ΔfpvB mutant; 64 μg/mL DSX + 10 μg/mL siderophore) | growth versus control (PA14 ΔfpvA mutant; DSX 64 μg/mL or pyoverdine 10 μg/mL alone, 10:90) | fluorescence recovery (FpvB R648C; siderophore at 1/2 Kd (1/2 Kd2 for ferrioxamine B), recorded for 1 h) | affinity (Kd not reached, no saturation at highest concentration) (FpvB W347V R648C) | growth versus control (PA14 ΔfpvA ΔfpvB mutant; DSX 64 μg/mL, pyoverdine 10 μg/mL) |
| --- | --- | --- | --- | --- | --- | --- | --- | --- | --- |
| CC(=O)N(O)CCCCCNC(=O)CCC(=O)N(O)CCCCCNC(=O)CCC(=O)N(O)CCCCCN [ferrioxamine B] | rescued growth | rescued growth | ~ 50 % of the control | 874 | rescued growth |  |  |  |  |
| NCCCCC(NC(=O)C(CO)NC(=O)[C@@H]1CCN=C2C(NC(=O)CCC(=O)O)=Cc3cc(O)c(O)cc3N21)C(=O)NCC(=O)NC(CCCN(O)C=O)C(=O)NC1CCCCNC(=O)C(CO)NC(=O)C(CCCN(O)C=O)NC1=O (some centres unmarked) [pyoverdine] (Suc-[X1][ξS][ξK]G[ξOrn(N(OH)CHO)][ξK][ξOrn(N(OH)CHO)][ξS]; lactam 6-C) | restored growth compared to DSX alone | restored growth |  |  |  | delayed growth | no recovery | reduced affinity | inhibited |
